Experimental data as given in patent publication US20130296370A1, “COMPOSITION COMPRISING A PHOTOACTIVATABLE LARVICIDE” (UNIVERSITA DEGLI STUDI DI PADOVA, priority 2010, published 2013).

Experiments:
Artemia franciscana [1] = test: Dark- and photo-toxic activity of free C12 on breeding site biota; assay type: in vivo; conditions: nauplii; 1 h incubation; visible light 10 mW/cm^2
Experimental: (§1) The dark- and photo-toxic activity of free C12 (wherein C12 means porphyrin C12) was tested on representative components of mosquito's breeding sites biota, the results are shown in table 6, as minimal photosensitizing dose (μM). […] Sensitivity to phototreatment (visible light, 10 mW/cm^2) was obviously different, as C. inflate trophozoites and even cysts were highly photosensitive, while Artemia franciscana nauplii appeared to be highly resistant.

[2] = system: Chlamydomonas reinhardtii; test: as above; assay type: in vivo; conditions: vegetative cells; 1 h incubation; visible light 10 mW/cm^2
Experimental: as §1

Daphnia magna [3] = test: as above; assay type: in vivo; conditions: young individuals; 1 h incubation; visible light 10 mW/cm^2
Experimental: as §1

Colpoda inflata = test: Effect of free porphyrin on non-target organisms of aqueous habitats; assay type: in vivo; conditions: 1 h irradiation, fluorescent lamp
Experimental: (§2) The effect of free porphyrin, wherein porphyrin means porphyrin C12, dissolved in water on the photosensitivity of potential aqueous non-target organisms was evaluated on Colpoda inflata, Artemia franciscana and Daphnia magna, a protozoan and two crustacean organisms frequently found in aqueous environments. The mortality data were recorded after 1 h irradiation with visible light emitted by a fluorescent lamp.

Artemia franciscana [4] = test: as above; assay type: in vivo; conditions: 1 h irradiation, fluorescent lamp
Experimental: as §2

Daphnia magna [5] = test: as above; assay type: in vivo; conditions: 1 h irradiation, fluorescent lamp
Experimental: as §2

[6] = C12 photo-bleaching in water; assay type: physicochemical; conditions: free porphyrin in water; 1 hour irradiation, visible light 150 mW/cm^2
Experimental: Moreover, with the aim to determine the level of degradation of the free porphyrin in the water after exposure to sunlight, the rate of C12 photo-bleaching was followed spectrophotometrically by measuring the porphyrin absorption spectrum in the 350-700 nm range upon exposure to visible light at a fluence rate of 150 mW/cm^2. After 1 hour irradiation the porphyrin concentration decreased up to 50%.

An. stephensi = test: Laboratory-scale tray larvicide test; assay type: in vivo; conditions: carrier mouse food; 6 mg per tray; loading concentration 0.64 μM; fluorescent lamp
Experimental: (§3) Laboratory strains of Anopheles stephensi, M and S (Kisumu), chromosomal forms of An. gambiae, An. arabiensis and Aedes aegypti, as well as field-collected Anopheles spp. and Aedes spp. larvae were used. Laboratory mosquitoes were maintained at 28-30° C., >90% RH and a photoperiod of 12 h. Light intensity ranged between 0.5 mW/cm^2 (fluorescent lamp) and 185 mW/cm^2 (sunlight).
(§4) C12 or C14 porphyrin solutions at 5-100 μM concentrations were pre-incubated at room temperature in the darkness with 15-60 mg of carrier (either Eudragit or ground mouse food or cat food) for 4-12 hours under gentle shaking. After incubation the solutions were filtered, and the loaded carrier was dried at room temperature or in an oven (45° C.).
(§5) One litre capacity, transparent plastic trays containing wells with each 500 ml water and 6-60 mg of the composition of the present invention were prepared. Batches of 60-100 L2, L3 or L4 larvae were introduced into the trays after sunset (or artificial light off). Larval mortality was evaluated the next day starting from 8.00 am, and the time required to reach at least 90% mortality was recorded. Larvae not moving or not showing an escaping response at probing were defined as dead or dying, and counted together (Tables 2 and 3). Pupae occasionally formed throughout the irradiation time were discarded and excluded from the evaluation. An equal number of batches of larvae prepared in the same way were kept in continuous darkness and mortality was evaluated similarly, to assess toxicity in the dark.
(§6) Light intensity range: 0.5-185 mW/cm^2.

An. gambiae (M) = test: Laboratory-scale tray larvicide test; assay type: in vivo; conditions: sun
Experimental: as §3, §4, §5, §6

An. arabiensis = test: Laboratory-scale tray larvicide test; assay type: in vivo; conditions: sun
Experimental: as §3, §4, §5, §6

[7] = system: Anopheles gambiae Kisumu strain (S); test: Laboratory-scale tray larvicide test; assay type: in vivo; conditions: sun
Experimental: as §3, §4, §5, §6

[8] = system: Anopheles spp + Aedes spp; test: Tray larvicide test on field-collected mosquitoes; assay type: in vivo; conditions: carrier Eudragit; 30 mg per tray; loading concentration 50 μM; sunlight
Experimental: as §3, §4, §5
(§7) Each result derives from an independent, representative experiment. Light source: sunlight in all cases, intensity range: 4-185 mW/cm^2

Anopheles spp = test: Tray larvicide test on field-collected mosquitoes; assay type: in vivo; conditions: sunlight
Experimental: as §3, §4, §5, §7

Tetrahymena thermophila = conditions: in vivo
Experimental: as §1

Culex sp. = conditions: cited from earlier work
[9] = carrier Eudragit, 15 mg per tray, loading concentration 25 μM
[10] = carrier cat food, 30 mg per tray, loading concentration 50 μM
[11] = carrier Eudragit, 30 mg per tray, loading concentration 50 μM
[12] = carrier Eudragit, 30 mg per tray, loading concentration 25 μM

**Q.** For CCCCCCCCCCCC[n+]1ccc(-c2c3nc(c(-c4cc[n+](C)cc4)c4ccc([nH]4)c(-c4cc[n+](C)cc4)c4nc(c(-c5cc[n+](C)cc5)c5ccc2[nH]5)C=C4)C=C3)cc1 [C12, meso-tri(N-methyl-pyridyl), mono(N-dodecyl-pyridyl)porphine], which minimal photosensitizing dose (Artemia franciscana [1]) is on record?
**A.** The minimal photosensitizing dose was over 10.0 µM.

**Q.** What about the minimal photosensitizing dose [2] of the same compound?
**A.** The minimal photosensitizing dose was 0.2 µM.

**Q.** What about the minimal photosensitizing dose (Daphnia magna [3]) of the same compound?
**A.** The minimal photosensitizing dose was 0.3 µM.

**Q.** And the LD-50 (Colpoda inflata; cysts)?
**A.** Its LD-50 is over 1.0 µM.

**Q.** What about the “Mortality (%)” value (Colpoda inflata; cysts, porphyrin dose 1.0 μM) of the same compound?
**A.** Its value is 20%.

**Q.** What about the LD-50 (Colpoda inflata; trophozoites) of the same compound?
**A.** Its LD-50 is 1.0 µM.

**Q.** What about the “Mortality (%)” value (Colpoda inflata; trophozoites, porphyrin dose 0.6 μM) of the same compound?
**A.** The value was 40%.

**Q.** What about the LD-50 (Artemia franciscana [4]) of the same compound?
**A.** The LD-50 was over 10.0 µM.

**Q.** And the “Mortality (%)” value (Artemia franciscana [4]; porphyrin dose 6.0 μM)?
**A.** The value was 20%.

**Q.** What about the LD-50 (Daphnia magna [5]) of the same compound?
**A.** Its LD-50 is 0.3 µM.

**Q.** And the “Mortality (%)” value (Daphnia magna [5]; porphyrin dose 0.3 μM)?
**A.** Its value is 50%.

**Q.** And the “decrease of porphyrin concentration (photo-bleaching)” value [6]?
**A.** Its value is “up to 50%”.

**Q.** And the “Time to reach ≧90% mortality” value (An. stephensi)?
**A.** Its value is 6 h.

**Q.** And the “Time to reach ≧90% mortality” value (An. gambiae (M); [9])?
**A.** Its value is 0.5 h.

**Q.** What about the “Time to reach ≧90% mortality” value (An. gambiae (M); [10]) of the same compound?
**A.** The value was 3 h.

**Q.** And the “Time to reach ≧90% mortality” value (An. arabiensis; carrier Eudragit, 15 mg per tray, loading concentration 5 μM)?
**A.** Its value is 3 h.

**Q.** And the “Time to reach ≧90% mortality” value (An. arabiensis; [11])?
**A.** Its value is 0.5 h.

**Q.** And the “Time to reach ≧90% mortality” value (An. arabiensis; [10])?
**A.** Its value is 3 h.

**Q.** What about the “Time to reach ≧90% mortality” value [7, 9] of the same compound?
**A.** The value was 0.5 h.

**Q.** What about the “Time to reach ≧90% mortality” value ([7]; carrier Eudragit, 15 mg per tray, loading concentration 50 μM) of the same compound?
**A.** Its value is 0.5 h.

**Q.** What about the “Time to reach ≧90% mortality” value [7, 12] of the same compound?
**A.** The value was 0.5 h.

**Q.** What about the “Time to reach ≧90% mortality” value [7, 11] of the same compound?
**A.** The value was 0.5 h.

**Q.** What about the “Time to reach ≧90% mortality” value ([7]; carrier Eudragit, 60 mg per tray, loading concentration 50 μM) of the same compound?
**A.** Its value is 0.5 h.

**Q.** And the “Time to reach ≧90% mortality” value ([7]; carrier cat food, 30 mg per tray, loading concentration 25 μM)?
**A.** The value was 8 h.

**Q.** And the “Time to reach ≧90% mortality” value [7, 10]?
**A.** The value was 0.5 h.

**Q.** What about the “Time to reach ≧90% mortality” value ([7]; carrier cat food, 30 mg per tray, loading concentration 100 μM) of the same compound?
**A.** Its value is 0.5 h.

**Q.** What about the “Time to reach ≧90% mortality” value ([7]; carrier cat food, 60 mg per tray, loading concentration 100 μM) of the same compound?
**A.** Its value is 0.5 h.

**Q.** What about the “Time to reach ≧90% mortality” value [8] of the same compound?
**A.** Its value is 0.5 h.

**Q.** And the “Time to reach ≧90% mortality” value (Anopheles spp; carrier Eudragit, 15 mg per tray, loading concentration 15 μM)?
**A.** Its value is 3 h.

**Q.** And the “Time to reach ≧90% mortality” value (Anopheles spp; [12])?
**A.** The value was 0.5 h.

**Q.** What about the “Time to reach ≧90% mortality” value (Anopheles spp; [10]) of the same compound?
**A.** The value was 3 h.

**Q.** And the minimal photosensitizing dose (Tetrahymena thermophila)?
**A.** The minimal photosensitizing dose was 3.0 µM.

**Q.** For CC1=C(CCC(=O)O)c2cc3[nH]c(cc4nc(cc5[nH]c(cc1n2)c(C)c5C(C)O)C(C)=C4C(C)O)c(C)c3CCC(=O)O (stereo not shown) [hematoporphyrin], which mortality (Culex sp.; semi-field, 10^−5 M, after 3 days under natural sunlight) is on record?
**A.** Its mortality is 100%.

**Q.** For chlorophyllin, which LD50 (Culex sp.; laboratory, added to larval breeding water, after 3 h exposure to light intensity 146.66 W/m^2) is on record?
**A.** The LD50 was 6.88 g/L.
